Laboratory results from US6683085B2, “Salt form and polymorphs” (Pfizer Inc., priority 2000, dated 2004).
Where a name gives a salt, the structure may show the parent alone.

Experiments:
[1] = Hygroscopicity at 90% RH; format: physicochemical; conditions: for Hygroscopity % (w/w) at 90% RH: Table 4, polymorphic forms of the free base
[2] = Solubility of the mesylate salt and free base forms; format: physicochemical
[3] = Moisture sorption at 30° C. and 45% RH; format: physicochemical
[4] = Water content of the hydrated form of the free base; format: physicochemical
Text: The water content of the hydrated form of the free base (Form D) at ambient conditions is commonly of the order of 9 to 10% (w/w). This is equivalent to 2.5 to 2.8 moles of water per mole of the free base. […] The first mole was lost below 5% RH the second retained down to 1% RH see FIG. 11. It is likely that extended storage of the hydrated form below about 18% RH would result in dehydration. Furthermore, removal of the crystalline water results in the loss of the crystal lattice, the product being predominantly amorphous. This highlights a potential problem in using the conventional hydrated form in manufacturing a pharmaceutical formulation. Dehydration was observed on thermal analysis as a broad double endotherm at 97/113° C. (See FIG. 8)

[5] = tested on: male and female Sprague-Dawley rats; assay: Daily oral administration to rats for 1 month; format: in vivo; conditions: rat, 30 mg/kg for 1 month
[6] = Stability over a wide range of conditions; format: physicochemical; conditions: e.g. high light intensity

Structure (SMILES): COc1cc2nc(N3CCc4c(cccc4NS(C)(=O)=O)C3)nc(N)c2c(-c2ccccn2)c1OC [Form E, 4-Amino-6,7-dimethoxy-2-(5-methanesulfonamido-1,2,3,4-tetrahydroisoquinol-2-yl)-5-(2-pyridyl)quinazoline]
- Hygroscopity % (w/w) at 90% RH ([1]; 90% RH): 0.045 % (w/w)

Structure (SMILES): COc1cc2nc(N3CCc4c(cccc4NS(C)(=O)=O)C3)nc(N)c2c(-c2ccccn2)c1OC [Form D, 4-Amino-6,7-dimethoxy-2-(5-methanesulfonamido-1,2,3,4-tetrahydroisoquinol-2-yl)-5-(2-pyridyl)quinazoline, reference compound]
- Hygroscopity % (w/w) at 90% RH ([1]; 90% RH): 12.8 % (w/w)
- Solubility ([2]; 0.9% sodium chloride at 22° C., listed as Hydrated form of free base): 4 micrograms/ml
- Solubility ([2]; Water at 22° C., listed as Hydrated form of free base): 12 micrograms/ml
- Moisture sorption (% w/w) at 30° C. and 45% RH ([3]; listed as Hydrated form of free base): 11.24 % w/w
- Water content ([4]; 90% RH): 12.8 % (w/w)
- Water content, moles of water ([4]; 90% RH): 3.6 moles of water
- Water content ([4]; ambient conditions): 9 to 10 % (w/w)
- Water content, moles of water per mole of the free base ([4]; ambient conditions): 2.5 to 2.8 moles of water per mole of the free base

Structure (SMILES): COc1cc2nc(N3CCc4c(cccc4NS(C)(=O)=O)C3)nc(N)c2c(-c2ccccn2)c1OC [Mesylate salt, 4-amino-6,7-dimethoxy-2-(5-methanesulfonamido-1,2,3,4-tetrahydroisoquinol-2-yl)-5-(2-pyridyl)quinazoline mesylate]
- Hygroscopicity % (w/w) at 90% RH ([1]; 90% RH, Table 1, mesylate salt): 1.1 % (w/w)
- Hygroscopicity compared with another form ([1]; over a wide range of relative humidity, comparison in words): substantially lower than the free base
- Solubility ([2]; 0.9% sodium chloride at 22° C., mesylate): 120 micrograms/ml
- Solubility ([2]; Water at 22° C., mesylate): 880 micrograms/ml
- Moisture sorption (% w/w) at 30° C. and 45% RH ([3]; listed as Mesylate salt (mpt 279° C.), mesylate): 0.56 % w/w
- Adverse effects [5]: no evidence of adverse effects
- Changes linked to the pharmacological activity [5]: induced changes linked to the pharmacological activity of the compound
- Stability [6]: good stability

Structure (SMILES): COc1cc2nc(N3CCc4c(cccc4NS(C)(=O)=O)C3)nc(N)c2c(-c2ccccn2)c1OC [Form B, 4-Amino-6,7-dimethoxy-2-(5-methanesulfonamido-1,2,3,4-tetrahydroisoquinol-2-yl)-5-(2-pyridyl)quinazoline]
- Hygroscopity % (w/w) at 90% RH ([1]; 90% RH): 0.27 % (w/w)

Structure (SMILES): COc1cc2nc(N3CCc4c(cccc4NS(C)(=O)=O)C3)nc(N)c2c(-c2ccccn2)c1OC [Form A, 4-Amino-6,7-dimethoxy-2-(5-methanesulfonamido-1,2,3,4-tetrahydroisoquinol-2-yl)-5-(2-pyridyl)quinazoline]
- Hygroscopity % (w/w) at 90% RH ([1]; 90% RH): 2.2 % (w/w)
- Solubility ([2]; 0.9% sodium chloride at 22° C., listed as Free base (mpt 198° C.)): 36 micrograms/ml
- Solubility ([2]; Water at 22° C., listed as Free base (mpt 198° C.)): 420 micrograms/ml
- Moisture sorption (% w/w) at 30° C. and 45% RH ([3]; listed as Free base (mpt 198° C.)): 1.39 % w/w
